The test system of series [1] is recurrent glioblastoma multiforme (GBM). Nature of the series: Phase I/II dose-escalation study, tumor response in GBM patients. The format is in vivo, human. The source says: (§1) The methodology of the study reported in this Example is as follows: An open-label, single arm Phase I/II dose-escalation study designed to evaluate the safety, tolerability, pharmacokinetics and anti-tumor activity of dianhydrogalactitol in patients with: (i) histologically confirmed initial diagnosis of primary WHO Grade IV malignant GBM, now recurrent, or (ii) progressive secondary brain tumor, having failed standard brain radiotherapy, and with brain tumor progression after at least one line of systemic therapy. The study utilizes a 3+3 dose escalation design, until the MTD or the maximum specified dose is reached. Patients receive dianhydrogalactitol intravenously at the assigned dose on days 1, 2, and 3 of each 21-day treatment cycle. In Phase II, additional patients will be treated at the MTD (or other selected optimum Phase II dose) to measure tumor responses. All patients enrolled have previously been treated with surgery and/or radiation, if appropriate, and must have failed both bevacizumab and TMZ, unless contraindicated. For these studies, the following is a summary of the inclusion criteria: (1) Patients must be greater than or equal to 18 years old. (2) There is a histologically confirmed initial diagnosis of primary WHO Grade IV malignant glioma (glioblastoma), now recurrent, or progressive secondary brain tumor, the patient has failed standard brain radiotherapy, and the patient has brain tumor progression after at least one line of systemic therapy. […] (4) The patient must have a predicted life expectancy of at least 12 weeks. The following is a summary of the exclusion criteria: (1) There is a current history of neoplasm other than the entry diagnosis. Patients with previous cancers treated and cured with local therapy alone may be considered. (2) There is evidence of leptomeningeal spread of disease. […] (4) The patient had undergone prior treatment with intracerebral agents. […] (6) The patient is being administered concomitant medications that are strong inhibitors of cytochrome P450 and CYP3A up to 14 days before Cycle 1, Day 1 (pimozide, diltiazem, erythromycin, clarithromycin, and quinidine, and amiodarone up to 90 days before.
(§2) Enrollment and evaluation of Cohort 7 (40 mg/m^2) is ongoing. Higher doses may be enrolled subject to completion of mandated safety observation period with Cohort 6 (30 mg/m^2). Patients enrolled present with refractory progressive GBM and a dire prognosis. […] The primary endpoint of this portion of the study is to determine a modernized dosing regimen for advancement to registration-directed clinical trials. […] In this design, it is not possible to perform a rigorous assessment of patient benefit due to slowed tumor growth. Tumor volume is assessed during the study based on RANO criteria. […] Outcomes analysis of cohort 6 is ongoing. These preliminary data support continued exploration of higher dose cohorts.

The nature of series [2]: Phase I/II dose-escalation study, safety (DLT, SAE, MTD). The format is in vivo, human. Conditions: for drug-related serious adverse events: dose cohorts completed to date.
Source text: as §1, with “Patients receive dianhydrogalactitol intravenously at the assigned dose on days 1, 2, and 3 of each 21-day treatment cycle.” left out
as §2

Series [3] deals with normal human neural stem cells. Conditions: neurosphere growth assays; Hu et al. 2012; cited from earlier work.
The mark [4] stands for this setting: secondary brain tumor patients, n = 6.

Consider dianhydrogalactitol, for which, in series [1] (30 mg/m^2, one of two patients, after 1 cycle of treatment), the “tumor response in cohort 6” value is given as “stable disease”. The “Tumor Response, PR (number of patients)” value in series [1] (GBM, n = 8) is recorded as “PR (1); SD (1)”. Moreover, the “Tumor Response, SD (number of patients)” value in series [1] (GBM, n = 8) was “PR (1); SD (1)”. In addition, the “Tumor Response, Overall” value in series [1] (GBM, n = 8, prior Surgery/XRT/TMZ/BEV) is listed as “Overall = 25%”. The MRI scan findings result in series [1] (Patient #26, T=64 days versus T=0, after two cycles) is given as “Thick confluent regions of abnormal enhancement have diminished”. Besides, the “Status (DLT)” value in series [2] (1.5 mg/m^2, cumulative 9 mg/m^2 in 33-day cycle) was “Completed - No DLT”; in series [2] (3.0 mg/m^2, cumulative 18 mg/m^2 in 33-day cycle), “Completed - No DLT”; in series [2] (5.0 mg/m^2, cumulative 30 mg/m^2 in 33-day cycle) it was “Completed - No DLT”; in series [2] (10.0 mg/m^2, cumulative 60 mg/m^2 in 33-day cycle), “Completed - NO DLT”; in series [2] (20.0 mg/m^2 (revised scheme), cumulative 120 mg/m^2 in 33-day cycle) it was “Completed - NO DLT”; in series [2] (30.0 mg/m^2 (revised scheme), cumulative 180 mg/m^2 in 33-day cycle, analysis ongoing), “Completed - No DLT”. In addition, the DLT result in series [2] (GBM patients, n = 8) is recorded as “None”; in series [2] (setting [4]), “None”. The figures for the “drug-related serious adverse events” value in series [2] and in series [2] (listed as Dianhydrogalactitol) were “No drug-related serious adverse events have been detected” and “no drug-related serious adverse events have been detected”, respectively. For the same substance, the “maximum tolerated dose (MTD), as 33 day cycle cumulative dose” value in series [2] (five dose cohorts completed, not yet reached) is more than 120 mg/m^2. Also, in series [2] (i.v. on days 1, 2, and 3 of each 21-day cycle, not reached), the “maximum tolerated dose (MTD)” value is given as more than 30 mg/m^2. Also, the SAE entry in series [2] (setting [4]) was “None (n = 5)”. In addition, in series [3], the “effect on normal human neural stem cells” value is recorded as “minimal effect”.

Values taken from patent US20190015379A1, “USE OF DIANHYDROGALACTITOL AND ANALOGS AND DERIVATIVES THEREOF, TOGETHER WITH RADIATION, TO TREAT NON-SMALL-CELL CARCINOMA OF THE LUNG AND GLIOBLASTOMA MULTIFORME AND SUPPRESS PROLIFERATION OF CANCER STEM CELLS” (DelMar Pharmaceuticals, Inc., priority 2014, published 2019).
